Laboratory results published in patent US20230158025A1 (UNIVERSITY OF UTAH RESEARCH FOUNDATION, priority 2020, published 2023).
Like-named read-outs stand apart in the source and are kept apart here.

Legend:
recombinant mouse GALK1 = recombinant mouse GALK1 (Mus musculus, UniProt Q9R0N0); assay: mGALK1 biochemical activity assay (Kinase-Glo Plus, ATP depletion)
Outline: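 Recombinant GALK1 (5 nM) with 100 μM galactose; GALK1 turnover read as ATP depletion by Kinase-Glo Plus luminescence. Reaction ran 1 h at room temperature before detection reagent was added.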

PAMPA permeability = conditions: PAMPA
recombinant human GALK1 = recombinant human GALK1 (Homo sapiens, UniProt P51570); assay: hGALK1 biochemical activity assay (Kinase-Glo Plus, ATP depletion)
Outline: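 Turnover is measured as ATP depletion by Kinase-Glo Plus luminescence after a 1 h room-temperature reaction. Compounds span 11 concentrations, 57.4 μM–0.97 nM, in final 20 mM HEPES pH 8.0 with 5 mM MgCl2. The substrate solution held 35 μM ATP; the added solution held 5 nM human or mouse GALK1 and 100 μM galactose.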

[1] = aqueous kinetic solubility; conditions: aqueous kinetic solubility
[2] = rat microsomal stability (RLM); conditions: microsomal stability half-life
[3] = Tables 2-15, 35 μM ATP, 100 μM galactose, 1 h, bracketed figure after some values is undefined and not reported, read-out: mGALK IC50
[4] = recombinant mouse GALK1, Kinase-Glo Plus ATP depletion, read-out: mGALK
[5] = recombinant human GALK1, Kinase-Glo Plus ATP depletion, read-out: hGALK
[6] = Tables 2-15, 35 μM ATP, 100 μM galactose, 1 h, bracketed figure after some values is undefined and not reported
[7] = recombinant mouse GALK1, Kinase-Glo Plus ATP depletion
[8] = Tables 2-15, 35 μM ATP, 100 μM galactose, 1 h, bracketed figure after some values (e.g. −1.2) is undefined and not reported
[9] = recombinant human GALK1, Kinase-Glo Plus ATP depletion
[10] = Tables 2-15, 35 μM ATP, 100 μM galactose, 1 h, bracketed figure after some values (e.g. −1.2) is undefined and not reported, read-out: hGALK IC50

Chain of recombinant human GALK1 (P51570 whole entry): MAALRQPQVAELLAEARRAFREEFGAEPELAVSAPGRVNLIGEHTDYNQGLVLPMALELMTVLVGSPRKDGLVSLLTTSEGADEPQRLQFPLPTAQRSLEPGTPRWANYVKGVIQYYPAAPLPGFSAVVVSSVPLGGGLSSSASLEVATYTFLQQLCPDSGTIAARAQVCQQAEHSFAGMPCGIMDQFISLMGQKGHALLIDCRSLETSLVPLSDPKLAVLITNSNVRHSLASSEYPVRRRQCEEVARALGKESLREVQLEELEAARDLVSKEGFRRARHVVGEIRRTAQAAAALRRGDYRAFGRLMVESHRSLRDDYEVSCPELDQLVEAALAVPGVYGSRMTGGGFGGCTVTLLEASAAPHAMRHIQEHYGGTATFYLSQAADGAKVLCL
Chain of recombinant mouse GALK1 (Q9R0N0 whole entry): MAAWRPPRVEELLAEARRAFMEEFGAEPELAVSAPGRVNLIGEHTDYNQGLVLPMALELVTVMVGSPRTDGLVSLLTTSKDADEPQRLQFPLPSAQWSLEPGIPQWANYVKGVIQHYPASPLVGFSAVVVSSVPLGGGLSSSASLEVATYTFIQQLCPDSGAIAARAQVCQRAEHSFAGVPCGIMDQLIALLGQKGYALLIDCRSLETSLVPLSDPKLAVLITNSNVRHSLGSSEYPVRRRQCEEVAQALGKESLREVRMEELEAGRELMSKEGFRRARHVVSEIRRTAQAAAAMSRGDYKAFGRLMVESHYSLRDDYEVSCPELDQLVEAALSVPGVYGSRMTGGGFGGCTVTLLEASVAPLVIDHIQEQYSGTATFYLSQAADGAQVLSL

SMILES	IC50 (recombinant mouse GALK1; [3])	IC50 (recombinant mouse GALK1; [4])	Perm. (1 × 10^−6 cm/sec) (PAMPA permeability)	IC50 (recombinant human GALK1; [5])	Sol. [1]	Metab. Stabil. (m) [2]	mGALK IC50 (recombinant mouse GALK1; [6])	mGALK (μM) (recombinant mouse GALK1; [7])	hGALK IC50 (recombinant human GALK1; [8])	hGALK (μM) (recombinant human GALK1; [9])	IC50 (recombinant human GALK1; [10])
CC1=C(C(=O)Nc2cccc(CO)c2)C(c2ccccc2Cl)N=C(Nc2nc3ccccc3o2)N1 (stereo not drawn) [Compound 144, 2-(benzo[d]oxazol-2-ylamino)-4-(2-chlorophenyl)-N-(3-(hydroxymethyl)phenyl)-6-methyl-1,4-dihydropyrimidine-5-carboxamide]	9.68 µM	9.68 µM	1124.1 1 × 10^−6 cm/sec	3.85 µM	<1 µg/mL	>30 m	–	–	–	–	–
CC1=C(C(=O)N2CCOCC2)C(c2ccccc2Cl)N=C(Nc2nc3ccccc3o2)N1 (stereo not drawn) [Compound 145, (2-(benzo[d]oxazol-2-ylamino)-4-(2-chlorophenyl)-6-methyl-1,4-dihydropyrimidin-5-yl)(morpholino)methanone]	–	24.3 µM	1046.7 1 × 10^−6 cm/sec	24.3 µM	15.3 µg/mL	2.1 m	–	–	–	–	–
CC1=C(C(=O)Nc2cccc(Br)c2)C(c2ccccc2Cl)N=C(Nc2nc3ccccc3o2)N1 (stereo not drawn) [Compound 147, 2-(benzo[d]oxazol-2-ylamino)-N-(3-bromophenyl)-4-(2-chlorophenyl)-6-methyl-1,4-dihydropyrimidine-5-carboxamide]	–	–	<1.8 1 × 10^−6 cm/sec	–	<1 µg/mL	>30 m	inactive	in- active	inactive	in- active	–
CC1=C(C(=O)Nc2ccc(Br)cc2)C(c2ccccc2Cl)N=C(Nc2nc3ccccc3o2)N1 (stereo not drawn) [Compound 150, 2-(benzo[d]oxazol-2-ylamino)-N-(4-bromophenyl)-4-(2-chlorophenyl)-6-methyl-1,4-dihydropyrimidine-5-carboxamide]	15.3 µM	15.3 µM	<14.9 1 × 10^−6 cm/sec	9.68 µM	<1 µg/mL	>30 m	–	–	–	–	9.68 µM
CC1=C(C(=O)N(C)c2ccccc2)C(c2ccccc2Cl)N=C(Nc2nc3ccccc3o2)N1 (stereo not drawn) [Compound 151, 2-(benzo[d]oxazol-2-ylamino)-4-(2-chlorophenyl)-N,6-dimethyl-N-phenyl-1,4-dihydropyrimidine-5-carboxamide]	–	–	203.1 1 × 10^−6 cm/sec	–	<1 µg/mL	1.176 m	–	in- active	–	in- active	–
CC1=C(C(=O)Nc2cccc(Cl)c2)C(c2ccccc2Cl)N=C(Nc2nc3ccccc3o2)N1 (stereo not drawn) [Compound 154, 2-(benzo[d]oxazol-2-ylamino)-N-(3-chlorophenyl)-4-(2-chlorophenyl)-6-methyl-1,4-dihydropyrimidine-5-carboxamide]	–	–	<9.2 1 × 10^−6 cm/sec	–	<1 µg/mL	>30 m	inactive	in- active	inactive	in- active	–
CC1=C(C(=O)Nc2ccccc2CO)C(c2ccccc2Cl)N=C(Nc2nc3ccccc3o2)N1 (stereo not drawn) [Compound 156, 2-(benzo[d]oxazol-2-ylamino)-4-(2-chlorophenyl)-N-(2-(hydroxymethyl)phenyl)-6-methyl-1,4-dihydropyrimidine-5-carboxamide]	17.2 µM	17.2 µM	1038.5 1 × 10^−6 cm/sec	3.85 µM	<1 µg/mL	7.708 m	–	–	–	–	–
CC1=C(C(=O)Nc2ccccc2O)C(c2ccccc2Cl)N=C(Nc2nc3ccccc3o2)N1 (stereo not drawn) [Compound 161, 2-(benzo[d]oxazol-2-ylamino)-N-(2-hydroxyphenyl)-4-(2-chlorophenyl)-6-methyl-1,4-dihydropyrimidine-5-carboxamide]	17.2 µM	17.2 µM	21.1 1 × 10^−6 cm/sec	–	<1 µg/mL	17.94 m	–	–	–	–	6.85 µM

Other lines, results leading:

IC50 (recombinant mouse GALK1; [3])	IC50 (recombinant mouse GALK1; [4])	Perm. (1 × 10^−6 cm/sec) (PAMPA permeability)	IC50 (recombinant human GALK1; [5])	Sol. [1]	Metab. Stabil. (m) [2]	mGALK IC50 (recombinant mouse GALK1; [6])	mGALK (μM) (recombinant mouse GALK1; [7])	hGALK IC50 (recombinant human GALK1; [8])	hGALK (μM) (recombinant human GALK1; [9])	IC50 (recombinant human GALK1; [10])	SMILES
12.2 µM	12.2 µM	29.4 1 × 10^−6 cm/sec	–	<1 µg/mL	>30 m	–	–	–	–	7.69 µM	CC1=C(C(=O)Nc2ccc(F)cc2)C(c2ccccc2Cl)N=C(Nc2nc3ccccc3o2)N1 (stereo not drawn) [Compound 148, 2-(benzo[d]oxazol-2-ylamino)-N-(4-fluorophenyl)-4-(2-chlorophenyl)-6-methyl-1,4-dihydropyrimidine-5-carboxamide]
12.2 µM	12.2 µM	513.0 1 × 10^−6 cm/sec	6.85 µM	<1 µg/mL	20 m	–	–	–	–	–	CC1=C(C(=O)Nc2cccnc2)C(c2ccccc2Cl)N=C(Nc2nc3ccccc3o2)N1 (stereo not drawn) [Compound 149, 2-(benzo[d]oxazol-2-ylamino)-N-(pyridin-3-yl)-4-(2-chlorophenyl)-6-methyl-1,4-dihydropyrimidine-5-carboxamide]
13.7 µM	13.7 µM	15.0 1 × 10^−6 cm/sec	7.69 µM	<1 µg/mL	11.45 m	–	–	–	–	7.69 µM	CC1=C(C(=O)Nc2ccc(N(C)C)cc2)C(c2ccccc2Cl)N=C(Nc2nc3ccccc3o2)N1 (stereo not drawn) [Compound 152, 2-(benzo[d]oxazol-2-ylamino)-4-(2-chlorophenyl)-N-(4-(dimethylamino)phenyl)-6-methyl-1,4-dihydropyrimidine-5-carboxamide]
3.43 µM	3.43 µM	<7.3 1 × 10^−6 cm/sec	3.43 µM	<1 µg/mL	>30 m	–	–	–	–	3.43 µM	CC1=C(C(=O)Nc2ccc([N+](=O)[O-])cc2)C(c2ccccc2Cl)N=C(Nc2nc3ccccc3o2)N1 (stereo not drawn) [Compound 163, 2-(benzo[d]oxazol-2-ylamino)-4-(2-chlorophenyl)-6-methyl-N-(4-nitrophenyl)-1,4-dihydropyrimidine-5-carboxamide]
–	9.68 µM	<1 1 × 10^−6 cm/sec	4.85 µM	24.6 µg/mL	>30 m	–	–	–	–	–	CC1=C(C(=O)Nc2ccc(C(=O)O)nc2)C(c2ccccc2Cl)N=C(Nc2nc3ccccc3o2)N1 (stereo not drawn) [Compound 164, 5-(2-(benzo[d]oxazol-2-ylamino)-4-(2-chlorophenyl)-6-methyl-1,4-dihydropyrimidine-5-carboxamido)picolinic acid]
–	7.69 µM	766.1 1 × 10^−6 cm/sec	4.85 µM	<1 µg/mL	>30 m	–	–	–	–	–	CC1=C(C(=O)Nc2ccc(CO)nc2)C(c2ccccc2Cl)N=C(Nc2nc3ccccc3o2)N1 (stereo not drawn) [Compound 165, 2-(benzo[d]oxazol-2-ylamino)-4-(2-chlorophenyl)-N-(6-(hydroxymethyl)pyridin-3-yl)-6-methyl-1,4-dihydropyrimidine-5-carboxamide]
–	6.85 µM	96.1 1 × 10^−6 cm/sec	6.11 µM	<1 µg/mL	4.678 m	–	–	–	–	–	COC(=O)c1ccc(NC(=O)C2=C(C)NC(Nc3nc4ccccc4o3)=NC2c2ccccc2Cl)cn1 (stereo not drawn) [Compound 166, methyl 5-(2-(benzo[d]oxazol-2-ylamino)-4-(2-chlorophenyl)-6-methyl-1,4-dihydropyrimidine-5-carboxamido)picolinate]
